Measured values as given in ChEMBL document CHEMBL1148803, “Polyfluorinated bis-styrylbenzene beta-amyloid plaque binding ligands” (J Med Chem, 2007).

Assay: Binding affinity to beta amyloid protein 1-40 by fluorescence titration
Design: species or system Homo sapiens

| SMILES | Kd |
| --- | --- |
| O=C(O)c1cc(/C=C/c2c(F)c(F)c(/C=C/c3ccc(O)c(C(=O)O)c3)c(F)c2F)ccc1O | 9.4 nM |
| Oc1ccc(/C=C/c2c(F)c(F)c(/C=C/c3ccc(O)cc3)c(F)c2F)cc1 | 0.03 nM |
| O=C(O)c1cc(/C=C/c2ccc(/C=C/c3ccc(O)c(C(=O)O)c3)c(F)c2)ccc1O | 3400 nM |
| Cc1ccc2c(c1)sc(-c1ccc(N(C)C)cc1)[n+]2C [THIOFLAVIN T] | 560 nM |

The remaining lines, values ahead:

| Kd | SMILES |
| --- | --- |
| 11 nM | Oc1ccc(/C=C/c2ccc(/C=C/c3ccc(O)cc3)cc2)cc1 |
| 10 nM | FC(F)(F)Oc1ccc(/C=C/c2ccc(/C=C/c3ccc(OC(F)(F)F)cc3)cc2)cc1 |
| 9.5 nM | FC(F)(F)c1ccc(/C=C/c2ccc(/C=C/c3ccc(C(F)(F)F)cc3)cc2)cc1 |
| 26 nM | FC(F)(F)c1cccc(/C=C/c2ccc(/C=C/c3cccc(C(F)(F)F)c3)cc2)c1 |
| 16 nM | FC(F)(F)Oc1cccc(/C=C/c2ccc(/C=C/c3cccc(OC(F)(F)F)c3)cc2)c1 |
